Assay results published in publication PMC12143354, “Determining sex differences in aortic valve myofibroblast responses to drug combinations identified using a digital medicine platform” (Science Advances, 2025).
Read-outs that look alike come from different tables or passages of the source.

Key:
male VICs [1] = assay: percent αSMA GMI reduction by immunofluorescent staining, male VICs on TCPS; assay type: cell-based, pig; details: for reduction in αSMA GMI, initial screen: male VICs on TCPS, dosing range 10^-7 to 10^3 μM; for Percent αSMA reduction, Average: male VICs, n = 3 wells
Protocol: (§1) VICs were collected by aspirating off spent media, washing with PBS (Sigma-Aldrich) for 1 min, then incubating with 1× trypsin (Life Technologies) for 3 min. Trypsin was neutralized with an equal volume of 15% FBS growth media and centrifuged for 5 min at 0.2g. The media solution was then aspirated, and VICs were resuspended with 1 ml of 1% FBS media. VICs were counted with an automated hemocytometer to calculate the volume of cell solution to add to each well to seed at 6400 cells per well (20,000 cells/cm^2) for TCPS and hydrogel experiments. […] For each inhibitor, the nonlinear regression tool in Prism was used to estimate the response against the agonist by fitting the top, bottom, EC50/CC50, and hillslope to each dataset.

male VICs [2] = tested on: male VICs
Protocol: (§2) After culture on hydrogels or TCPS, the spent drug-containing media were removed, and VICs were immersed in a 4% paraformaldehyde solution in PBS for 20 min and then permeabilized for 1 hour with 0.1% Triton X-100 (Thermo Fisher Scientific) in PBS. Cells were then blocked with 5% bovine serum albumin in PBS for 1 hour at room temperature or over the weekend at 4°C. […] Last, VICs were washed once with PBS and then stored in PBS at 4°C until imaging. Gel samples were imaged in situ using a Nikon Eclipse Ti2-E and analyzed using an automated MATLAB code to quantify the αSMA gradient mean intensities and caspase-3 intensities normalized to cell mask for each cell. A minimum of 100 cells were used per gel with multiple gels used per condition.
(§3) Percent cytotoxicity was determined by designating each cell as alive or dead using caspase-3 intensity normalized to cell mask intensity, which was thresholded using a positive and negative control for cell death [10 nM staurosporine (Cell Signaling Technologies) or 1% FBS media]. The bottom value for every curve fit was set to 0, and the top value was constrained to a maximum of 100 to indicate the maximum possible effect of the drug. […] Absolute EC and CC values for % αSMA reduction and percent cytotoxicity were quantified using the top, bottom, EC50/CC50, and hillslope values estimated from the curve fits generated in GraphPad Prism (GraphPad Software Inc).

female VICs [3] = tested on: female VICs
Protocol: as §2, §3

female VICs [4] = assay: percent αSMA GMI reduction, female VICs on soft hydrogels; assay type: cell-based, pig; details: n = 3 gels
From the text: (§4) Last, we tested the ability of […]-designed combinations to prevent myofibroblast activation in VICs cultured on other substrates beyond stiff hydrogels. […] Six male-optimized combinations were effective in preventing male VIC myofibroblast activation (Fig. 7K). […] Single-drug monotherapies used in the top male and female drug combinations were confirmed to have a minimal effect on male and female VIC αSMA GMI on soft hydrogels (table S14). […] After aspirating off the spent media, VICs were resuspended in 5 ml of fresh 15% FBS media and seeded on T25 Falcon tissue culture-treated flasks (Thermo Fisher Scientific). […] VICs were collected by aspirating off spent media, washing with PBS (Sigma-Aldrich) for 1 min, then incubating with 1× trypsin (Life Technologies) for 3 min. Trypsin was neutralized with an equal volume of 15% FBS growth media and centrifuged for 5 min at 0.2g. The media solution was then aspirated, and VICs were resuspended with 1 ml of 1% FBS media. VICs were counted with an automated hemocytometer to calculate the volume of cell solution to add to each well to seed at 6400 cells per well (20,000 cells/cm^2) for TCPS and hydrogel experiments. […] For each inhibitor, the nonlinear regression tool in Prism was used to estimate the response against the agonist by fitting the top, bottom, EC50/CC50, and hillslope to each dataset.

male VICs [5] = assay: percent αSMA GMI reduction, male VICs on stiff hydrogels; assay type: cell-based, pig; details: male VICs; for EC1 / EC2: from dose response curves; for Percent αSMA reduction, Average: n = 3-4 gels
Protocol: (§5) Glass-bottom 96-well plates (Cellvis) were placed in an autoclave jar with a scintillation vial containing 100 μl of mercaptopropyltrimethoxysilane (MPTS; Sigma-Aldrich). The autoclave jar was then lightly sealed and placed inside an oven at 60°C for a minimum of 6 hours. The autoclave jar was opened in a chemical fume hood, and the vapor-deposited well plate was stored for up to 2 hours until ready for use. Eight-arm 20-kDa PEG-norbornene (PEG-Nb) was formed as outlined previously ([76]). A 7% (w/v) PEG-Nb hydrogel precursor solution was formed by combining phosphate-buffered saline (PBS), 20-kDa PEG-Nb at a 0.98:1 thiol-to-ene ratio, 5-kDa PEG-dithiol (Jenkem), CRGDS cell binding motif (Bachem), and lithium phenyl-2,4,6-trimethyl-benzoylphosphinate (Thermo Fisher Scientific). An EPMotion 5073l automated liquid handling system (Eppendorf) was used to pipet 7 μl of the hydrogel precursor solution into the center of each well of the vapor-deposited 96-well glass-bottom plate. The well plate with the hydrogel precursor solution was then stamped using a custom 96-well plate stamp, inverted, and cured under ultraviolet light at 10 mW/cm^2 for 3 min to induce gelation. The stamp was carefully removed by hand, and the newly formed gels were sterilized with a solution of 5% isopropyl alcohol (Thermo Fisher Scientific) in PBS for 20 min. Gels were then washed twice with PBS and stored in VIC media composed of Media199 (Life Technologies), 1% fetal bovine serum (FBS, Life Technologies), amphotericin B (1 μg/ml; Thermo Fisher Scientific), penicillin (50 U/ml; Sigma-Aldrich), and streptomycin (50 μg/ml; Sigma-Aldrich). Last, the hydrogels were placed in an incubator at 37°C with 5% carbon dioxide for up to 24 hours until experimental use.
(§6) Media changes were performed every 24 to 48 hours until cells reached ~80% confluency. […] The media solution was then aspirated, and VICs were resuspended with 1 ml of 1% FBS media. VICs were counted with an automated hemocytometer to calculate the volume of cell solution to add to each well to seed at 6400 cells per well (20,000 cells/cm^2) for TCPS and hydrogel experiments. For all experiments, VICs were seeded with 1% FBS media containing the specified drug doses and incubated at 37°C with 5% carbon dioxide with media changes every 48 to 72 hours if needed.
(§7) Drug stock solutions were discarded after two thaw cycles or after 10 months of storage. For all experiments, drug dilutions were calculated and added to VIC media to ensure that total DMSO levels remained below 1% for cytotoxicity and αSMA reduction curve fitting experiments and below 0.3% for drug combination experiments.
as §2
(§8) Curve fitting for VIC percent αSMA reduction and cytotoxicity was performed using GraphPad Prism 10 (GraphPad Software Inc). For each inhibitor, the nonlinear regression tool in Prism was used to estimate the response against the agonist by fitting the top, bottom, EC50/CC50, and hillslope to each dataset. After 2 days of culture, the percent αSMA reduction was calculated using the average αSMA gradient mean intensities of the control relative to the drug condition using Eq. 1 %αSMA reduction=100×(Control−Drug Condition/Control) (1)

male VICs [6] = assay: percent αSMA GMI reduction, male VICs on soft hydrogels; assay type: cell-based, pig; details: n = 3 gels
From the text: as §4

female VICs [7] = assay: percent αSMA GMI reduction, female VICs on stiff hydrogels; assay type: cell-based, pig; details: for EC1 / EC2: from dose response curves; for Percent αSMA reduction, Average: n = 3-4 gels
Protocol: as §5, §6, §7, §2, §8

female VICs [8] = assay: percent αSMA GMI reduction by immunofluorescent staining, female VICs on TCPS; assay type: cell-based, pig; details: for reduction in αSMA GMI, initial screen: female VICs on TCPS, dosing range 10^-7 to 10^3 μM; for Percent αSMA reduction, Average: female VICs, TCPS, n = 3 wells
Protocol: as §1

[9] = male VICs, stiff hydrogels, from dose response curves
[10] = female VICs, stiff hydrogels, from dose response curves

C[C@@H](N)[C@H]1CC[C@H](C(=O)Nc2ccncc2)CC1 [Combination Y-27632]
sex difference in efficacy (male versus female EC20) (male VICs [1]; TCPS, unpaired two-tailed t test, P < 0.05): significantly more effective in male VICs relative to female VICs | reduction in αSMA GMI, initial screen (male VICs [1]): > 25% | Percent αSMA reduction, Average (male VICs [1]; TCPS, single drug at L1 dose): 6.48% | CC1 (male VICs [2]): 10.8 µM | CC2 (male VICs [2]): 19.9 µM | CC25 (percent cytotoxicity) (male VICs [2]): 224 µM | CC1 (female VICs [3]): 27.5 µM | CC2 (female VICs [3]): 37.9 µM | CC25 (percent cytotoxicity) (female VICs [3]): 135 µM | Percent αSMA reduction, Average (female VICs [4]; single drug at L1 dose): 3.22% | Percent αSMA reduction, Average (female VICs [4]; single drug at L2 dose): 8.24% | EC1 (male VICs [5]): 0.558 µM | EC2 (male VICs [5]): 1.34 µM | Percent αSMA reduction, Average (male VICs [5]; single drug at level 1 dose): 0.24% | Percent αSMA reduction, Average (male VICs [5]; single drug at level 2 dose): 2.37% | Percent αSMA reduction, Average (male VICs [6]; single drug at L1 dose): -2.58% | EC1 (female VICs [7]): 1.31 µM | EC2 (female VICs [7]): 2.81 µM | Percent αSMA reduction, Average (female VICs [7]; single drug at level 1 dose): 28.93% | Percent αSMA reduction, Average (female VICs [7]; single drug at level 2 dose): 22.12% | reduction in αSMA GMI, initial screen (female VICs [8]): > 25% | Percent αSMA reduction, Average (female VICs [8]; single drug at L1 dose): 0.37% | Percent αSMA reduction, Average (female VICs [8]; single drug at L2 dose): -2.07%

Fc1ccc(Cl)cc1-c1nc(Nc2ccncc2)c2nccnc2n1 [SD-208]
reduction in αSMA GMI, initial screen (male VICs [1]): > 25% | Percent αSMA reduction, Average (male VICs [1]; TCPS, single drug at L2 dose): 7.80% | CC25 (percent cytotoxicity) (male VICs [2]; male VICs on stiff gels, n = 3 gels): 58.9 µM | CC1 (male VICs [2]; [9]): 26.6 µM | CC2 (male VICs [2]; [9]): 31.1 µM | CC25 (percent cytotoxicity) (female VICs [3]; female VICs on stiff gels, n = 3 gels): 70.1 µM | CC1 (female VICs [3]; [10]): 34.8 µM | CC2 (female VICs [3]; [10]): 40.1 µM | Percent αSMA reduction, Average (female VICs [4]; single drug at L2 dose): 9.37% | EC1 (male VICs [5]): 0.0582 µM | EC2 (male VICs [5]): 0.188 µM | Percent αSMA reduction, Average (male VICs [5]; single drug at level 1 dose): 14.60% | Percent αSMA reduction, Average (male VICs [5]; single drug at level 2 dose): 0.63% | Percent αSMA reduction, Average (male VICs [6]; single drug at L2 dose): 5.58% | EC1 (female VICs [7]): 0.0061 µM | EC2 (female VICs [7]): 0.0275 µM | Percent αSMA reduction, Average (female VICs [7]; single drug at level 1 dose): 4.19% | Percent αSMA reduction, Average (female VICs [7]; single drug at level 2 dose): 8.81% | reduction in αSMA GMI, initial screen (female VICs [8]): > 25% | Percent αSMA reduction, Average (female VICs [8]; single drug at L2 dose): 3.05%

C[S+]([O-])c1ccc(-c2nc(-c3ccncc3)c(-c3ccc(F)cc3)[nH]2)cc1 (centres unmarked) [SB203580]
reduction in αSMA GMI, initial screen (male VICs [1]): > 25% | CC1 (male VICs [2]; male, pig): 0.413 µM | CC2 (male VICs [2]; male, pig): 2.18 µM | CC25 (percent cytotoxicity) (male VICs [2]; male, pig): 1,613 uM | CC1 (female VICs [3]; female, pig): 29.8 µM | CC2 (female VICs [3]; female, pig): 48.9 µM | CC25 (percent cytotoxicity) (female VICs [3]; female, pig): 874 µM | EC1 (male VICs [5]): 24.8 µM | EC2 (male VICs [5]): 40.8 µM | Percent αSMA reduction, Average (male VICs [5]; single drug at level 1 dose): 5.45% | Percent αSMA reduction, Average (male VICs [5]; single drug at level 2 dose): 3.67% | EC1 (female VICs [7]): 7.56 µM | EC2 (female VICs [7]): 14.5 µM | Percent αSMA reduction, Average (female VICs [7]; single drug at level 1 dose): 2.35% | Percent αSMA reduction, Average (female VICs [7]; single drug at level 2 dose): -6.55% | reduction in αSMA GMI, initial screen (female VICs [8]): > 25%
